Tested on: catfish diagnosed as having PGD (proliferative gill disease)
Assay: treatment of rearing pond containing catfish diseased with PGD
Format: in vivo
Method: In order to effect these concentrations in the tank or pond where the diseased fish are contained the concentrated solution of Chloramine-T is prepared for using the correct amount of Chloramine-T for the volume of water which is contained in the tank or pond where the diseased fish reside. This concentrated solution is then spread evenly over the surface of the pond or tank via the use of a chemical boat. In order to aid mixing aeration equipment is run one hour before the application and 35 hours after the application.
1. A pond of 17 acres, 4.5 feet deep holding approximately 2 million catfish contained approximately 76.5 acre feet of water. […] […] Upon examination the whole fish population was diagnosed as having PGD in various stages with some of the fish dying. 411.57 pounds of Chloramine-T was dissolved in 50 gallons of water contained in a tank on a chemical boat, as the boat moved over the pond the Chloramine-T was applied evenly over the surface of the pond.

[1] = Example 1, catfish 2 to 4 inches, 2 ppm, after 72 hours
[2] = Example 2, catfish 6 to 9 inches, 2 ppm, after 72 hours
[3] = Example 3, catfish 1 to 1.25 pounds, 2 ppm, after 72 hours
[4] = Example 4, catfish 8 to 11 inches, 2 ppm, after 72 hours
[5] = Example 5, catfish 8 to 11 inches, 1.5 ppm, after 72 hours

Cc1ccc(S(=O)(=O)NCl)cc1.[Na] [Chloramine-T, N-Sodium, N-chloro-para-toluenesulfonamide]
death rate of the fish (Example 1, catfish 2 to 4 inches, approx. 2 million, 2 ppm in pond, 24 hours after application): substantially decreased
death rate of the fish (Example 1, catfish 2 to 4 inches, 2 ppm, after 48 hours): further decreased
PGD status upon examination of the fish population [1]: in remission
death of fish [1]: essentially stopped
PGD status upon examination of the fish population (Example 1, catfish 2 to 4 inches, 2 ppm, after 96 hours): free of PGD
death rate of the fish (Example 2, catfish 6 to 9 inches, approx. 1 million, 2 ppm in pond, 24 hours after application): substantially decreased
death rate of the fish (Example 2, catfish 6 to 9 inches, 2 ppm, after 48 hours): further decreased
PGD status upon examination of the fish population [2]: in remission
death of fish [2]: essentially stopped
PGD status upon examination of the fish population (Example 2, catfish 6 to 9 inches, 2 ppm, after 96 hours): free of PGD
death rate of the fish (Example 3, catfish 1 to 1.25 pounds, approx. 125,000, 2 ppm in pond, 24 hours after application): substantially decreased
death rate of the fish (Example 3, catfish 1 to 1.25 pounds, 2 ppm, after 48 hours): further decreased
PGD status upon examination of the fish population [3]: in remission
death of fish [3]: essentially stopped
PGD status upon examination of the fish population (Example 3, catfish 1 to 1.25 pounds, 2 ppm, after 96 hours): free of PGD
death rate of the fish (Example 4, catfish 8 to 11 inches, approx. 700,000, 2 ppm in pond, 24 hours after application): substantially decreased
death rate of the fish (Example 4, catfish 8 to 11 inches, 2 ppm, after 48 hours): further decreased
PGD status upon examination of the fish population [4]: in remission
death of fish [4]: essentially stopped
PGD status upon examination of the fish population (Example 4, catfish 8 to 11 inches, 2 ppm, after 96 hours): free of PGD
death rate of the fish (Example 5, catfish 8 to 11 inches, approx. 700,000, 1.5 ppm in pond, 24 hours after application): no decrease
death rate of the fish (Example 5, catfish 8 to 11 inches, 1.5 ppm, after 48 hours): not decreased
PGD status upon examination of the fish population [5]: continued unabated
death of fish [5]: continued
PGD status upon examination of the fish population (Example 5, catfish 8 to 11 inches, 1.5 ppm, after 96 hours): continued to die and be afflicted with PGD
survival of the diseased fish (Example 6, catfish 8 to 11 inches, approx. 450,000, 387 pounds in 48 acre feet, printed 1.5 ppm, 24 hours after application): all of the fish were dead
control of PGD in diseased catfish (summary of Examples 1 through 6) (concentrations of less than 2 ppm): ineffective
toxicity to diseased catfish (summary of Examples 1 through 6) (concentrations of more than 3 ppm): kill the diseased catfish
control of PGD in diseased catfish (summary of Examples 1 through 6) (use in accordance with the process of the invention (2 to 3 ppm)): eliminates PGD

Source: US6386145B1, “Process for curing diseases in cultured fish” (B. L. Mitchell, Inc., priority 2000, dated 2002)
